According to publication PMC11855827, “High-Throughput Screening of Five Compound Libraries for Anthelmintic Activity and Toxicity Leads to the Discovery of Two Flavonoid Compounds” (International Journal of Molecular Sciences, 2025):

Test system: C. elegans
Settings: Table S2, C. elegans SS assay, 110 μM, averages of 4 data points

Row | SMILES | Percentage of motility inhibition 0 h [%] | Percentage of motility inhibition 24 h [%]
1 | CC(=O)NO [Acetohydroxamic acid] | 13 | 4
2 | CC(=O)O[C@H]1Cc2cc3c(cc2[C@H]2N(C)Cc4c(ccc5c4OCO5)[C@@]12C)OCO3 [Acetylcorynoline] | 34 | 11
3 | CC(=O)O[C@H](C[C@@H](C)[C@H]1C(=O)[C@H](O)[C@@]2(C)[C@@H]3CC[C@H]4C(C)(C)[C@@H](O[C@@H]5OC[C@H](O)[C@H](O)[C@H]5O)CC[C@@]45C[C@@]35CC[C@]12C)[C@@H]1OC1(C)C [Acetylshengmanol Arabinoside] | 30 | 30
4 | CC(=O)O[C@H](CC(=O)O)C[N+](C)(C)C.[Cl-] [Acetyl‐L‐carni tine (hydrochloride)] | 12 | 0
5 | COCCNC(=O)Nc1ccc2nc(-c3cccs3)c(-c3cccs3)nc2c1 [Ac‐CoA Synthase Inhibitor1] | 16 | 8
6 | Nc1ncnc2nc[nH]c12.Nc1ncnc2nc[nH]c12.O=S(=O)(O)O [Adenine (hemisulfate)] | 3 | 5
7 | Cl.Nc1ncnc2nc[nH]c12 [Adenine (hydrochloride)] | 0 | 0
8 | Nc1ncnc2c1ncn2[C@@H]1O[C@H](COP(=O)(O)O)[C@@H](O)[C@H]1O.O [Adenosine 5'-monophosphate (monohydrate)] | 20 | 2
9 | Nc1ncnc2c1ncn2[C@@H]1O[C@H](COP(=O)(O)O)[C@@H](O)[C@H]1O [Adenosine monophosphate] | 8 | 6
10 | C/C1=C2/[N-][C@H]([C@H](CC(N)=O)[C@@]2(C)CCC(=O)NC[C@@H](C)OP(=O)([O-])O[C@H]2[C@@H](O)[C@@H](n3cnc4cc(C)c(C)cc43)O[C@@H]2CO)[C@]2(C)N=C(/C(C)=C3N=C(/C=C4N=C1[C@@H](CCC(N)=O)C\4(C)C)[C@@H](CCC(N)=O)[C@]\3(C)CC(N)=O)[C@@H](CCC(N)=O)[C@]2(C)CC(N)=O.[CH2-][C@H]1O[C@@H](n2cnc3c(N)ncnc32)[C@H](O)[C@@H]1O.[Co] [Adenosylcobalamin] | 20 | 22
11 | COC(=O)C1=CO[C@@H](C)[C@H]2CN3CCc4c([nH]c5ccccc45)[C@@H]3C[C@H]12 [Ajmalicine] | 0 | 1
12 | C[C@]1(O)C[C@@H](O)[C@@H]2C=CO[C@@H](O[C@@H]3O[C@H](CO)[C@@H](O)[C@H](O)[C@H]3O)[C@@H]21 [Ajugol] | 0 | 2
13 | C=C1C(=O)O[C@@H]2C[C@@]3(C)CCC[C@H](C)C3=C[C@H]12 [Alantolactone] | 6 | 29
14 | C[C@]12C[C@@H](O)[C@@H]3C[C@@]1(O[C@@H]1O[C@H](CO)[C@@H](O)[C@H](O)[C@H]1O)[C@@]3(COC(=O)c1ccccc1)C(=O)O2 [Albiflorin] | 0 | 2
15 | CC(=O)O[C@H]([C@@H](O)C[C@@H](C)C1=C2C[C@H](O)[C@H]3[C@@]4(C)CCC(=O)C(C)(C)[C@@H]4CC[C@]3(C)[C@@]2(C)CC1)C(C)(C)O [Alisol A 24-acetate] | 3 | 23
16 | CC(=O)O[C@@H](C[C@@H](C)C1=C2C[C@H](O)[C@H]3[C@@]4(C)CCC(=O)C(C)(C)[C@@H]4CC[C@]3(C)[C@@]2(C)CC1=O)[C@H]1OC1(C)C [Alisol C 23-acetate] | 0 | 17
17 | C[C@@H]1C[C@@H]([C@@H](O)C(C)(C)O)O[C@H]2C[C@@]3(C)C(=C12)C[C@H](O)[C@H]1[C@@]2(C)CCC(=O)C(C)(C)[C@@H]2CC[C@@]13C [Alisol F] | 0 | 11
18 | O=C1CCC[C@@H]2[C@H]3CCCN4CCC[C@@H](CN12)[C@H]34 [Allomatrine] | 0 | 0
19 | O=C1C=C2C=C[C@@H]3C[C@@]2(O1)[C@@H]1CCCCN31 [Allosecurinine] | 23 | 29
20 | C1=C2CCCN[C@H]2[C@@H]2C[C@H]1[C@H]1CCCCN1C2 [Aloperine] | 20 | 0
21 | Cl.NC12CC3CC(CC(C3)C1)C2 [Amantadine (hydrochloride)] | 42 | 2
22 | C=C[C@H]1[C@H](O[C@@H]2O[C@H](CO)[C@@H](O)[C@H](O)[C@H]2OC(=O)c2c(O)cc(O)cc2-c2cccc(O)c2)OC=C2C(=O)OCC[C@]21O [Amaroswerin] | 0 | 0

Row | SMILES | Percentage of motility inhibition 0 h [%] | Percentage of motility inhibition 24 h [%]
23 | CC1(C)CCC[C@]2(C)[C@H]3CCO[C@]3(C)CC[C@@H]12 [Ambroxide] | 8 | 14
24 | NCC[C@H](O)C(=O)N[C@@H]1C[C@H](N)[C@@H](O[C@H]2O[C@H](CN)[C@@H](O)[C@H](O)[C@H]2O)[C@H](O)[C@H]1O[C@H]1O[C@H](CO)[C@@H](O)[C@H](N)[C@H]1O.O=S(=O)(O)O.O=S(=O)(O)O [Amikacin (sulfate)] | 0 | 3
25 | CC1(C)[C@@H](O[C@H]2O[C@H](C(=O)O)[C@@H](O)[C@H](O)[C@H]2O[C@@H]2O[C@H](C(=O)O)[C@@H](O)[C@H](O)[C@H]2O)CC[C@]2(C)[C@H]3C(=O)C=C4[C@@H]5C[C@@](C)(C(=O)O)CC[C@]5(C)CC[C@@]4(C)[C@]3(C)CC[C@@H]12 [Ammonium glycyrrhizinate] | 20 | 11
26 | CCC(C)(C)c1ccc(CC(C)CN2C[C@@H](C)O[C@@H](C)C2)cc1.Cl (some centres unmarked) [Amorolfine (hydrochloride)] | 20 | 9
27 | CC1(C)S[C@@H]2[C@H](NC(=O)[C@H](N)c3ccc(O)cc3)C(=O)N2[C@H]1C(=O)[O-].[Na+] [Amoxicillin (sodium)] | 29 | 10
28 | CC1(C)S[C@@H]2[C@H](NC(=O)[C@H](N)c3ccc(O)cc3)C(=O)N2[C@H]1C(=O)O.O.O.O [Amoxicillin (trihydrate)] | 27 | 0
29 | CC1(C)S[C@@H]2[C@H](NC(=O)[C@H](N)c3ccccc3)C(=O)N2[C@H]1C(=O)[O-].[Na+] [Ampicillin (sodium)] | 24 | 1
30 | CCCc1ncc(C[n+]2ccccc2C)c(N)n1.Cl.[Cl-] [Amprolium (hydrochloride)] | 12 | 0
31 | COc1ccc2c(c1OC)C(OC)N(C)c1c-2ccc2cc3c(cc12)OCO3 (centres unmarked) [Angoline] | 0 | 0
32 | Br.CN1[C@H]2C[C@H](OC(=O)[C@H](CO)c3ccccc3)C[C@@H]1[C@@H](O)C2 [Anisodamine (hydrobromide)] | 0 | 1
33 | CN1[C@H]2C[C@H](OC(=O)[C@H](CO)c3ccccc3)C[C@@H]1[C@@H](O)C2 [Anisodamine] | 10 | 5
34 | COc1ccc(C[C@H]2NC[C@H](O)[C@H]2OC(C)=O)cc1 [Anisomycin] | 10 | 44
35 | CC(C)(C)OC(=O)N1CCC[C@H]1c1nc(C(=O)O)cs1 [Antibiotic‐5d] | 0 | 0
36 | O=C1CC[C@H](NC(=O)Cc2ccccc2)C(=O)N1 [Antineoplaston A10] | 0 | 0
37 | O=c1cc(-c2ccc(O)cc2)oc2cc(O[C@@H]3O[C@H](CO)[C@@H](O)[C@H](O)[C@H]3O)cc(O)c12 [Apigenin 7‐glucoside] | 10 | 40
38 | CC1OC(OC2C(Oc3cc(O)c4c(=O)cc(-c5ccc(O)cc5)oc4c3)OC(COC3OC(CO)C(O)C(O)C3O)C(O)C2O)C(O)C(O)C1O (centres unmarked) [Apigenin‐7‐O‐(2G‐rhamnosyl)gentiobioside] | 10 | 0
39 | O=C(O)[C@H]1O[C@@H](Oc2cc(O)c3c(=O)cc(-c4ccc(O)cc4)oc3c2)[C@H](O)[C@@H](O)[C@@H]1O [Apigenin‐7‐glucuronide] | 23 | 3
40 | C=C(C(=O)OC1C[C@@H]2[C@H]3O[C@H]3[C@H](C1)N2C)c1ccccc1 (some centres unmarked) [Aposcopolamine] | 14 | 10
41 | CN[C@@H]1[C@@H](O[C@H]2O[C@H](CO)[C@@H](N)[C@H](O)[C@H]2O)OC2C[C@@H](N)[C@@H](O[C@H]3[C@H](O)[C@@H](O)[C@H](N)C[C@@H]3N)OC2[C@@H]1O (some centres unmarked) [Apramycin (sulfate)] | 29 | 2
42 | CC1(C)CC[C@]2(C(=O)O[C@@H]3O[C@H](CO)[C@@H](O)[C@H](O)[C@H]3O)CC[C@]3(C)C(=CC[C@@H]4[C@@]5(C)CC[C@H](O[C@@H]6O[C@H](C(=O)O)[C@@H](O[C@@H]7O[C@@H](CO)[C@H](O)[C@H]7O)[C@H](O)[C@H]6O)C(C)(C)[C@@H]5CC[C@]43C)[C@@H]2C1 [Araloside A] | 6 | 0
43 | CCOC(=O)c1c(CSc2ccccc2)n(C)c2cc(Br)c(O)c(CN(C)C)c12.Cl [Arbidol (hydrochloride)] | 33 | 3
